Assay results as given in patent US12503471B2, “Triazatricycle compounds for the treatment of autoimmune disease” (Hoffmann-La Roche Inc., priority 2019, dated 2025).

The molecules below were run against T1, human TLR8 (Homo sapiens, UniProt Q9NR97) (assay: HEK293-Blue-hTLR-8 cells assay). Settings: HEK293-Blue-hTLR8 cells, R848 stimulation, 20 hrs, SEAP reporter; read-out: HEK/hTLR8 IC50.
T1 construct: host or cells: HEK293 (HEK-Blue hTLR8)
T1 sequence (Q9NR97 27-1041): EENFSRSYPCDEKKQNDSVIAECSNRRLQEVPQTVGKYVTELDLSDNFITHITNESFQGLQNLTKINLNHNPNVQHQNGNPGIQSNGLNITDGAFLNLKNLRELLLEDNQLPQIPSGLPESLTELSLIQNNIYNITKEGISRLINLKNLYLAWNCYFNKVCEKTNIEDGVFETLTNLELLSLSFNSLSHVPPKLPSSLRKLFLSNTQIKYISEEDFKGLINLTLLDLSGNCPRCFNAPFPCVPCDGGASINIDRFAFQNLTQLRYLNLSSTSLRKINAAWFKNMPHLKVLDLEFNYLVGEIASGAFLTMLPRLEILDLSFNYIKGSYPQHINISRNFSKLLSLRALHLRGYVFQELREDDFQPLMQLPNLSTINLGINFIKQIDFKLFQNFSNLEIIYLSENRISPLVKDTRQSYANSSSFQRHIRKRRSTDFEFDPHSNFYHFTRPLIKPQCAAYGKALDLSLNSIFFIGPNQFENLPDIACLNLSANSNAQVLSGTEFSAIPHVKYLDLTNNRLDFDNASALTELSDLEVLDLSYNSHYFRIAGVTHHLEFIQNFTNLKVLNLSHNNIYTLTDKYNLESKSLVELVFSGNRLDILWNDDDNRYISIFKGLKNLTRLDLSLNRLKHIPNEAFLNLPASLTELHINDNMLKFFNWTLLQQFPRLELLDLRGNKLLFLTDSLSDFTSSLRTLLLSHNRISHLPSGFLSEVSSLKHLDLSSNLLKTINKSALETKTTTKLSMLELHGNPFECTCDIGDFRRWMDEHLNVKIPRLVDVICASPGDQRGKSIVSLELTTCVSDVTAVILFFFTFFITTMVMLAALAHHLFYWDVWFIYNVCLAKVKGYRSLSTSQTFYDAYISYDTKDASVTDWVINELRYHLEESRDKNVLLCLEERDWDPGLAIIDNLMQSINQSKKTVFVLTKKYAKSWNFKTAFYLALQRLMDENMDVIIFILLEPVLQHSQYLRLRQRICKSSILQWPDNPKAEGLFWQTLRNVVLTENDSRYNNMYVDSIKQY
Type: cell-based
From the text: HEK293-Blue-hTLR-8 Cells Assay:
A stable HEK293-Blue-hTLR-8 cell line was purchased from InvivoGen (Cat. #: hkb-htlr8, San Diego, Calif., USA). These cells were originally designed for studying the stimulation of human TLR8 by monitoring the activation of NF-κB. A SEAP (secreted embryonic alkaline phosphatase) reporter gene was placed under the control of the IFN-β minimal promoter fused to five NF-κB and AP-1-binding sites. The SEAP was induced by activating NF-κB and AP-1 via stimulating HEK-Blue hTLR8 cells with TLR8 ligands. Therefore the reporter expression was declined by TLR8 antagonist under the stimulation of a ligand, such as R848, for incubation of 20 hrs. The cell culture supernatant SEAP reporter activity was determined using QUANTI-Blue™ kit (Cat. #: rep-qbl, Invivogen, San Diego, Ca, USA) at a wavelength of 640 nm, a detection medium that turns purple or blue in the presence of alkaline phosphatase.
HEK293-Blue-hTLR8 cells were incubated at a density of 250,000˜450,000 cells/mL in a volume of 170 μL in a 96-well plate in Dulbecco's Modified Eagle's medium (DMEM) containing 4.5 g/L glucose, 50 U/mL penicillin, […], […], 2 mM L-glutamine, 10% (v/v) heat-inactivated fetal bovine serum with addition of 20 μL test compound in a serial dilution in the presence of final DMSO at 1% and 10 μL of 60 uM R848 in above DMEM, perform incubation under 37° C. in a CO2 incubator for 20 hrs. Then 20 μL of the supernatant from each well was incubated with 180 μL Quanti-blue substrate solution at 37° C. for 2 hrs and the absorbance was read at 620-655 nm using a spectrophotometer. The signaling pathway that TLR8 activation leads to downstream NF-κB activation has been widely accepted, and therefore similar reporter assay was modified for evaluating TLR8 antagonist.

Row | Compound | IC50 [nM]
1 | [2H]c1ccc2c(N3C[C@@H](C)N4Cc5nc(O[C@H]6CCNC6)ccc5[C@H]4C3)ccc(C#N)c2n1 [Example 25, 2-Deuterio-5-[(2S,6R)-6-methyl-11-[(3S)-pyrrolidin-3-yl]oxy-4,7,10-triazatricyclo[7.4.0.02,7]trideca-1(9),10,12-trien-4-yl]quinoline-8-carbonitrile] | < 0.3
2 | [2H]c1ccc2c(N3C[C@@H](C)N4Cc5nc(N6CCC7(CC6)CNCCO7)ccc5[C@H]4C3)ccc(C#N)c2n1 [Example 18, 2-Deuterio-5-[(2S,6R)-6-methyl-11-(1-oxa-4,9-diazaspiro[5.5]undecan-9-yl)-4,7,10-triazatricyclo[7.4.0.02,7]trideca-1(9),10,12-trien-4-yl]quinoline-8-carbonitrile] | < 0.3
3 | [2H]c1ccc2c(N3C[C@@H](C)N4Cc5nc(N6CC[C@H](N)[C@@H](OC)C6)ccc5[C@H]4C3)ccc(C#N)c2n1 [Example 12, 5-[(2S,6R)-11-[(3S,4S)-4-amino-3-methoxy-1-piperidyl]-6-methyl-4,7,10-triazatricyclo[7.4.0.02,7]trideca-1(9),10,12-trien-4-yl]-2-deuterio-quinoline-8-carbonitrile] | < 0.3
4 | [2H]c1ccc2c(N3C[C@@H](C)N4Cc5nc(N6C[C@H]7C[C@@H]6CN7)ccc5[C@H]4C3)ccc(C#N)c2n1 [Example 17, 2-Deuterio-5-[(2S,6R)-11-[(1R,4R)-2,5-diazabicyclo[2.2.1]heptan-2-yl]-6-methyl-4,7,10-triazatricyclo[7.4.0.02,7]trideca-1(9),10,12-trien-4-yl]quinoline-8-carbonitrile] | < 0.3
5 | N#Cc1ccc(N2CCN3Cc4nc(N5CCNCC5)ccc4[C@@H]3C2)c2cccnc12 [Example 3A, 5-[(2R)-11-piperazin-1-yl-4,7,10-triazatricyclo[7.4.0.02,7]trideca-1(9),10,12-trien-4-yl]quinoline-8-carbonitrile] | 0.5
6 | [2H]c1ccc2c(N3C[C@@H](C)N4Cc5nc(N6CC[C@](C)(N)C6)ccc5[C@H]4C3)ccc(C#N)c2n1 [Example 8, 5-[(2S,6R)-11-[(3S)-3-amino-3-methyl-pyrrolidin-1-yl]-6-methyl-4,7,10-triazatricyclo[7.4.0.02,7]trideca-1(9),10,12-trien-4-yl]-2-deuterio-quinoline-8-carbonitrile] | < 0.3
7 | C[C@@H]1CN(c2ccc(C#N)n3nccc23)C[C@@H]2c3ccc(N4C[C@@H]5C[C@H]4CN5)nc3CN12 [Example 21, 4-[(2S,6R)-11-[(1S,4S)-2,5-diazabicyclo[2.2.1]heptan-2-yl]-6-methyl-4,7,10-triazatricyclo[7.4.0.02,7]trideca-1(9),10,12-trien-4-yl]pyrazolo[1,5-a]pyridine-7-carbonitrile] | 3.6
8 | C[C@@H]1CN(c2ccc(C#N)c3ncccc23)C[C@@H]2c3cnc(N4CCNCC4)cc3CN12 [Example 2, 5-[(2S,6R)-6-methyl-11-piperazin-1-yl-4,7,12-triazatricyclo[7.4.0.02,7]trideca-1(9),10,12-trien-4-yl] quinoline-8-carbonitrile] | 0.4
9 | [2H]c1ccc2c(N3C[C@@H](C)N4Cc5nc(C6CCNCC6)ccc5[C@H]4C3)ccc(C#N)c2n1 [Example 23, 2-Deuterio-5-[(2S,6R)-6-methyl-11-(4-piperidyl)-4,7,10-triazatricyclo[7.4.0.02,7]trideca-1(9),10,12-trien-4-yl]quinoline-8-carbonitrile] | 0.3
10 | C[C@@H]1CN(c2ccc(C#N)c3ncccc23)C[C@@H]2c3ccc(N4CCNCC4)nc3CN12 [Example 5, 5-[(2S,6R)-6-methyl-11-piperazin-1-yl-4,7,10-triazatricyclo[7.4.0.02,7]trideca-1(9),10,12-trien-4-yl]quinoline-8-carbonitrile] | < 0.3
11 | C[C@@H]1CN(c2ccc(C#N)c3ncccc23)C[C@@H]2c3ccc(N4CC5CNCC(C4)O5)nc3CN12 [Example 6, 5-[(2S,6R)-6-methyl-11-(9-oxa-3,7-diazabicyclo[3.3.1]nonan-3-yl)-4,7,10-triazatricyclo[7.4.0.02,7]trideca-1(9),10,12-trien-4-yl]quinoline-8-carbonitrile] | 2.3
12 | [2H]c1ccc2c(N3C[C@@H](C)N4Cc5nc(N6CCC7(CNC7)C6)ccc5[C@H]4C3)ccc(C#N)c2n1 [Example 9, 2-Deuterio-5-[(2S,6R)-11-(2,6-diazaspiro[3.4]octan-6-yl)-6-methyl-4,7,10-triazatricyclo[7.4.0.02,7]trideca-1(9),10,12-trien-4-yl]quinoline-8-carbonitrile] | 0.7
13 | [2H]c1ccc2c(N3C[C@@H](C)N4Cc5nc(N6CC[C@@H](N)[C@H](OC)C6)ccc5[C@H]4C3)ccc(C#N)c2n1 [Example 11, 5-[(2S,6R)-11-[(3R,4R)-4-amino-3-methoxy-1-piperidyl]-6-methyl-4,7,10-triazatricyclo[7.4.0.02,7]trideca-1(9),10,12-trien-4-yl]-2-deuterio-quinoline-8-carbonitrile] | < 0.3
14 | [2H]c1ccc2c(N3C[C@@H](C)N4Cc5nc(N6CC[C@@](C)(N)C6)ccc5[C@H]4C3)ccc(C#N)c2n1 [Example 7, 5-[(2S,6R)-11-[(3R)-3-amino-3-methyl-pyrrolidin-1-yl]-6-methyl-4,7,10-triazatricyclo[7.4.0.02,7]trideca-1(9),10,12-trien-4-yl]-2-deuterio-quinoline-8-carbonitrile] | < 0.3
15 | [2H]c1ccc2c(N3C[C@@H](C)N4Cc5nc(N6CC[C@H](OC)[C@@H](N)C6)ccc5[C@H]4C3)ccc(C#N)c2n1 [Example 14, 5-[(2S,6R)-11-[(3S,4S)-3-amino-4-methoxy-1-piperidyl]-6-methyl-4,7,10-triazatricyclo[7.4.0.02,7]trideca-1(9),10,12-trien-4-yl]-2-deuterio-quinoline-8-carbonitrile] | < 0.3
16 | [2H]c1ccc2c(N3C[C@@H](C)N4Cc5nc(N6CC[C@H]7CNC[C@H]76)ccc5[C@H]4C3)ccc(C#N)c2n1 [Example 10, 5-[(2S,6R)-11-[(3aS,6aS)-3,3a,4,5,6,6a-hexahydro-2H-pyrrolo[2,3-c]pyrrol-1-yl]-6-methyl-4,7,10-triazatricyclo[7.4.0.02,7]trideca-1(9),10,12-trien-4-yl]-2-deuterio-quinoline-8-carbonitrile] | < 0.3
17 | CC1(N)CCN(c2ccc3c(n2)CN2CCN(c4ccc(C#N)c5ncccc45)C[C@@H]32)CC1 [Example 4A, 5-[(2R)-11-(4-amino-4-methyl-1-piperidyl)-4,7,10-triazatricyclo[7.4.0.02,7]trideca-1(9),10,12-trien-4-yl]quinoline-8-carbonitrile] | 1.9
18 | [2H]c1ccc2c(N3C[C@@H](C)N4Cc5nc(N6C[C@@H]7C[C@H]6CN7)ccc5[C@H]4C3)ccc(C#N)c2n1 [Example 16, 2-Deuterio-5-[(2S,6R)-11-[(1S,4S)-2,5-diazabicyclo[2.2.1]heptan-2-yl]-6-methyl-4,7,10-triazatricyclo[7.4.0.02,7]trideca-1(9),10,12-trien-4-yl]quinoline-8-carbonitrile] | 0.4
